Results as given in ChEMBL document CHEMBL2346526, “Synthesis and antiproliferative activity of C-homo-lactam derivatives of 7-deoxycholic acid” (Bioorg Med Chem Lett, 2013).

Key:
Format in all cases: functional, cell-based
[1] = Cytotoxicity against GNE 2 cells (unknown origin) after 72 hrs by MTT assay
[2] = Cytotoxicity against human Tu 686 cells after 72 hrs by MTT assay
HeLa = assay: Cytotoxicity against human HeLa cells after 72 hrs by MTT assay
[3] = Cytotoxicity against human SMMC-7404 cells after 72 hrs by MTT assay
[4] = Cytotoxicity against human SPC-A cells after 72 hrs by MTT assay
[5] = Cytotoxicity against human MGC7901 cells after 72 hrs by MTT assay
[6] = Homo sapiens, HeLa, 72 h, read-out: IC50

| Structure (SMILES) | IC50 [1] | IC50 [2] | IC50 (HeLa; [6]) | IC50 [3] | IC50 [4] | IC50 [5] | IC50 (HeLa; hela) |
| --- | --- | --- | --- | --- | --- | --- | --- |
| COC(=O)CC[C@@H](C)[C@H]1CC[C@H]2[C@@H]3CC[C@@H]4C[C@@H](OC(C)=O)CC[C@]4(C)[C@H]3C/C(=N\O)[C@]12C | 17.3 µM | 74.3 µM | 14.7 µM | 15.6 µM | 13.5 µM | 19.8 µM | – |
| COC(=O)CC[C@@H](C)[C@H]1CC[C@H]2[C@@H]3CC[C@@H]4C[C@@H](OC(C)=O)CC[C@]4(C)[C@H]3CC(=O)N[C@]12C | > 200 µM | 65.9 µM | 15.9 µM | 62.3 µM | > 200 µM | 80.7 µM | – |
| COC(=O)CC[C@@H](C)[C@H]1CC[C@H]2[C@@H]3CC[C@@H]4C[C@@H](O)CC[C@]4(C)[C@H]3CC(=O)N[C@]12C | 168 µM | > 200 µM | 19 µM | > 200 µM | > 200 µM | > 200 µM | – |
| C[C@H](CCC(=O)O)[C@H]1CC[C@H]2[C@@H]3CC[C@@H]4C[C@@H](O)CC[C@]4(C)[C@H]3CC(=O)N[C@]12C | 168 µM | 44.3 µM | 19.2 µM | > 200 µM | > 200 µM | > 200 µM | – |
| C[C@H](CCC(=O)O)[C@H]1CC[C@H]2[C@@H]3CC[C@@H]4CC(=O)CC[C@]4(C)[C@H]3CC(=O)N[C@]12C | > 200 µM | 16.7 µM | – | > 200 µM | > 200 µM | > 200 µM | > 200 µM |
| CC(=O)O[C@H]1CC[C@@]2(C)[C@H](CC[C@@H]3[C@@H]2CC(=O)N[C@]2(C)[C@@H]([C@H](C)CCC(=O)O)CC[C@@H]32)C1 | 134 µM | 19.8 µM | – | 99.3 µM | 185 µM | 185 µM | > 200 µM |
| CC(=O)O[C@H]1CC[C@@]2(C)[C@H](CC[C@@H]3[C@@H]2CC(=O)N[C@]2(C)[C@@H]([C@H](C)CCC(=O)N(C)C)CC[C@@H]32)C1 | 151 µM | 74.5 µM | – | 168 µM | 130 µM | 88.5 µM | > 200 µM |
